# Experimental data: ChEMBL document CHEMBL4393697, “Lipophilic efficient phenylthiazoles with potent undecaprenyl pyrophosphatase inhibitory activity” (Eur J Med Chem, 2019)
# Test system: Staphylococcus aureus
# Assay: Antibacterial activity against Staphylococcus aureus NRS107 assessed as reduction in bacterial cell growth incubated for 18 to 20 hrs by broth microdilution method
# Format: functional
# Settings: not given
row,Structure (SMILES),MIC [µg/mL]
1,C/C(=N\NC(=N)N)c1sc(-c2ccc(C#CC(C)(C)O)cc2)nc1C,4

# Test system: Staphylococcus aureus
# Assay: Antibacterial activity against methicillin resistant Staphylococcus aureus USA400 assessed as reduction in bacterial cell growth incubated for 18 to 20 hrs by broth microdilution method
# Format: functional
# Settings: not given
row,Structure (SMILES),MIC [µg/mL]
1,C/C(=N\NC(=N)N)c1sc(-c2ccc(C#CC(C)(C)O)cc2)nc1C,2

# Test system: Staphylococcus aureus
# Assay: Antibacterial activity against methicillin-resistant Staphylococcus aureus USA300 assessed as reduction in bacterial cell growth incubated for 18 to 20 hrs by broth microdilution method
# Format: functional
# Settings: not given
row,Structure (SMILES),MIC [µg/mL]
1,C/C(=N\NC(=N)N)c1sc(-c2ccc(C#CC(C)(C)O)cc2)nc1C,4

# Test system: Staphylococcus aureus
# Assay: Antibacterial activity against methicillin resistant Staphylococcus aureus NRS119 assessed as reduction in bacterial cell growth incubated for 18 to 20 hrs by broth microdilution method
# Format: functional
# Settings: not given
row,Structure (SMILES),MIC [µg/mL]
1,C/C(=N\NC(=N)N)c1sc(-c2ccc(C#CC(C)(C)O)cc2)nc1C,2

# Test system: Staphylococcus aureus
# Assay: Antibacterial activity against vancomycin resistant Staphylococcus aureus VRS10 assessed as reduction in bacterial cell growth incubated for 18 to 20 hrs by broth microdilution method
# Format: functional
# Settings: not given
row,Structure (SMILES),MIC [µg/mL]
1,C/C(=N\NC(=N)N)c1sc(-c2ccc(C#CC(C)(C)O)cc2)nc1C,4

# Test system: Staphylococcus aureus
# Assay: Antibacterial activity against Staphylococcus aureus ATCC 6538 assessed as reduction in bacterial cell growth incubated for 18 to 20 hrs by broth microdilution method
# Format: functional
# Settings: not given
row,Structure (SMILES),MIC [µg/mL]
1,C/C(=N\NC(=N)N)c1sc(-c2ccc(C#CC(C)(C)O)cc2)nc1C,2

# Test system: Staphylococcus epidermidis
# Assay: Antibacterial activity against methicillin resistant Staphylococcus epidermidis NRS101 assessed as reduction in bacterial cell growth incubated for 18 to 20 hrs by broth microdilution method
# Format: functional
# Settings: not given
row,Structure (SMILES),MIC [µg/mL]
1,C/C(=N\NC(=N)N)c1sc(-c2ccc(C#CC(C)(C)O)cc2)nc1C,4

# Test system: Staphylococcus aureus
# Assay: Antibacterial activity against vancomycin resistant Staphylococcus aureus VRS12 assessed as reduction in bacterial cell growth incubated for 18 to 20 hrs by broth microdilution method
# Format: functional
# Settings: not given
row,Structure (SMILES),MIC [µg/mL]
1,C/C(=N\NC(=N)N)c1sc(-c2ccc(C#CC(C)(C)O)cc2)nc1C,4

# Test system: Staphylococcus aureus
# Assay: Antibacterial activity against vancomycin resistant Staphylococcus aureus VRS11a assessed as reduction in bacterial cell growth incubated for 18 to 20 hrs by broth microdilution method
# Format: functional
# Settings: not given
row,Structure (SMILES),MIC [µg/mL]
1,C/C(=N\NC(=N)N)c1sc(-c2ccc(C#CC(C)(C)O)cc2)nc1C,1

# Test system: Enterococcus faecalis
# Assay: Antibacterial activity against vancomycin resistant Enterococcus faecalis ATCC 51299 assessed as reduction in bacterial cell growth incubated for 18 to 20 hrs by broth microdilution method
# Format: functional
# Settings: not given
row,Structure (SMILES),MIC [µg/mL]
1,C/C(=N\NC(=N)N)c1sc(-c2ccc(C#CC(C)(C)O)cc2)nc1C,4

# Test system: Enterococcus faecium
# Assay: Antibacterial activity against vancomycin resistant Enterococcus faecium ATCC 700221 assessed as reduction in bacterial cell growth incubated for 18 to 20 hrs by broth microdilution method
# Format: functional
# Settings: not given
row,Structure (SMILES),MIC [µg/mL]
1,C/C(=N\NC(=N)N)c1sc(-c2ccc(C#CC(C)(C)O)cc2)nc1C,2

# Test system: Listeria monocytogenes
# Assay: Antibacterial activity against Listeria monocytogenes ATCC 19111 assessed as reduction in bacterial cell growth incubated for 18 to 20 hrs by broth microdilution method
# Format: functional
# Settings: not given
row,Structure (SMILES),MIC [µg/mL]
1,C/C(=N\NC(=N)N)c1sc(-c2ccc(C#CC(C)(C)O)cc2)nc1C,4

# Test system: Streptococcus pneumoniae
# Assay: Antibacterial activity against Cephalosporin resistant Streptococcus pneumoniae ATCC 51916 assessed as reduction in bacterial cell growth incubated for 18 to 20 hrs by broth microdilution method
# Format: functional
# Settings: not given
row,Structure (SMILES),MIC [µg/mL]
1,C/C(=N\NC(=N)N)c1sc(-c2ccc(C#CC(C)(C)O)cc2)nc1C,4

# Test system: Streptococcus pneumoniae
# Assay: Antibacterial activity against Methicillin resistant Streptococcus pneumoniae ATCC 700677 assessed as reduction in bacterial cell growth incubated for 18 to 20 hrs by broth microdilution method
# Format: functional
# Settings: not given
row,Structure (SMILES),MIC [µg/mL]
1,C/C(=N\NC(=N)N)c1sc(-c2ccc(C#CC(C)(C)O)cc2)nc1C,4

# Test system: Staphylococcus aureus
# Assay: Bactericidal activity against Staphylococcus aureus ATCC 6538 assessed as reduction in bacterial cell growth incubated for 18 to 20 hrs followed by re-plating on tryptic soy agar plates at 37 degC for 18 hrs by broth microdilution assay
# Format: functional
# Settings: not given
row,Structure (SMILES),MBC [µg/mL]
1,C/C(=N\NC(=N)N)c1sc(-c2ccc(C#CC(C)(C)O)cc2)nc1C,4

# Test system: Staphylococcus aureus
# Assay: Bactericidal activity against Staphylococcus aureus NRS107 assessed as reduction in bacterial cell growth incubated for 18 to 20 hrs followed by re-plating on tryptic soy agar plates at 37 degC for 18 hrs by broth microdilution assay
# Format: functional
# Settings: not given
row,Structure (SMILES),MBC [µg/mL]
1,C/C(=N\NC(=N)N)c1sc(-c2ccc(C#CC(C)(C)O)cc2)nc1C,4

# Test system: Staphylococcus aureus
# Assay: Bactericidal activity against methicillin resistant Staphylococcus aureus NRS119 assessed as reduction in bacterial cell growth incubated for 18 to 20 hrs followed by re-plating on tryptic soy agar plates at 37 degC for 18 hrs by broth microdilution assay
# Format: functional
# Settings: not given
row,Structure (SMILES),MBC [µg/mL]
1,C/C(=N\NC(=N)N)c1sc(-c2ccc(C#CC(C)(C)O)cc2)nc1C,4

# Test system: Staphylococcus aureus
# Assay: Bactericidal activity against methicillin-resistant Staphylococcus aureus USA300 assessed as reduction in bacterial cell growth incubated for 18 to 20 hrs followed by re-plating on tryptic soy agar plates at 37 degC for 18 hrs by broth microdilution assay
# Format: functional
# Settings: not given
row,Structure (SMILES),MBC [µg/mL]
1,C/C(=N\NC(=N)N)c1sc(-c2ccc(C#CC(C)(C)O)cc2)nc1C,16

# Test system: Staphylococcus aureus
# Assay: Bactericidal activity against vancomycin resistant Staphylococcus aureus VRS10 assessed as reduction in bacterial cell growth incubated for 18 to 20 hrs followed by re-plating on tryptic soy agar plates at 37 degC for 18 hrs by broth microdilution assay
# Format: functional
# Settings: not given
row,Structure (SMILES),MBC [µg/mL]
1,C/C(=N\NC(=N)N)c1sc(-c2ccc(C#CC(C)(C)O)cc2)nc1C,16

# Test system: Staphylococcus aureus
# Assay: Bactericidal activity against vancomycin resistant Staphylococcus aureus VRS11a assessed as reduction in bacterial cell growth incubated for 18 to 20 hrs followed by re-plating on tryptic soy agar plates at 37 degC for 18 hrs by broth microdilution assay
# Format: functional
# Settings: not given
row,Structure (SMILES),MBC [µg/mL]
1,C/C(=N\NC(=N)N)c1sc(-c2ccc(C#CC(C)(C)O)cc2)nc1C,4

# Test system: Staphylococcus aureus
# Assay: Bactericidal activity against vancomycin resistant Staphylococcus aureus VRS12 assessed as reduction in bacterial cell growth incubated for 18 to 20 hrs followed by re-plating on tryptic soy agar plates at 37 degC for 18 hrs by broth microdilution assay
# Format: functional
# Settings: not given
row,Structure (SMILES),MBC [µg/mL]
1,C/C(=N\NC(=N)N)c1sc(-c2ccc(C#CC(C)(C)O)cc2)nc1C,16

# Test system: Enterococcus faecalis
# Assay: Bactericidal activity against vancomycin resistant Enterococcus faecalis ATCC 51299 assessed as reduction in bacterial cell growth incubated for 18 to 20 hrs followed by re-plating on tryptic soy agar plates at 37 degC for 18 hrs by broth microdilution assay
# Format: functional
# Settings: not given
row,Structure (SMILES),MBC [µg/mL]
1,C/C(=N\NC(=N)N)c1sc(-c2ccc(C#CC(C)(C)O)cc2)nc1C,8

# Test system: Enterococcus faecium
# Assay: Bactericidal activity against vancomycin resistant Enterococcus faecium ATCC 700221 assessed as reduction in bacterial cell growth incubated for 18 to 20 hrs followed by re-plating on tryptic soy agar plates at 37 degC for 18 hrs by broth microdilution assay
# Format: functional
# Settings: not given
row,Structure (SMILES),MBC [µg/mL]
1,C/C(=N\NC(=N)N)c1sc(-c2ccc(C#CC(C)(C)O)cc2)nc1C,4

# Test system: Listeria monocytogenes
# Assay: Bactericidal activity against Listeria monocytogenes ATCC 19111 assessed as reduction in bacterial cell growth incubated for 18 to 20 hrs followed by re-plating on tryptic soy agar plates at 37 degC for 18 hrs by broth microdilution assay
# Format: functional
# Settings: not given
row,Structure (SMILES),MBC [µg/mL]
1,C/C(=N\NC(=N)N)c1sc(-c2ccc(C#CC(C)(C)O)cc2)nc1C,8

# Test system: Streptococcus pneumoniae
# Assay: Bactericidal activity against Cephalosporin resistant Streptococcus pneumoniae ATCC 51916 assessed as reduction in bacterial cell growth incubated for 18 to 20 hrs followed by re-plating on tryptic soy agar plates at 37 degC for 18 hrs by broth microdilution assay
# Format: functional
# Settings: not given
row,Structure (SMILES),MBC [µg/mL]
1,C/C(=N\NC(=N)N)c1sc(-c2ccc(C#CC(C)(C)O)cc2)nc1C,8

# Test system: Acinetobacter baumannii
# Assay: Antibacterial activity against Acinetobacter baumannii ATCC 19606 assessed as reduction in bacterial cell growth incubated for 18 to 20 hrs by broth microdilution method
# Format: functional
# Settings: not given
row,Structure (SMILES),MIC [µg/mL]
1,C/C(=N\NC(=N)N)c1sc(-c2ccc(C#CC(C)(C)O)cc2)nc1C,64

# Test system: Escherichia coli
# Assay: Antibacterial activity against Escherichia coli BW25113 assessed as reduction in bacterial cell growth incubated for 18 to 20 hrs by broth microdilution method
# Format: functional
# Settings: not given
row,Structure (SMILES),MIC [µg/mL]
1,C/C(=N\NC(=N)N)c1sc(-c2ccc(C#CC(C)(C)O)cc2)nc1C,> 64

# Test system: Escherichia coli
# Assay: Antibacterial activity against Escherichia coli JW55031 harboring deltatolC mutant assessed as reduction in bacterial cell growth incubated for 18 to 20 hrs by broth microdilution method
# Format: functional
# Settings: not given
row,Structure (SMILES),MIC [µg/mL]
1,C/C(=N\NC(=N)N)c1sc(-c2ccc(C#CC(C)(C)O)cc2)nc1C,16

# Test system: Pseudomonas aeruginosa
# Assay: Antibacterial activity against Pseudomonas aeruginosa ATCC 15442 assessed as reduction in bacterial cell growth incubated for 18 to 20 hrs by broth microdilution method
# Format: functional
# Settings: not given
row,Structure (SMILES),MIC [µg/mL]
1,C/C(=N\NC(=N)N)c1sc(-c2ccc(C#CC(C)(C)O)cc2)nc1C,> 64

# Test system: Acinetobacter baumannii
# Assay: Bactericidal activity against Acinetobacter baumannii ATCC 19606 assessed as reduction in bacterial cell growth incubated for 18 to 20 hrs followed by re-plating on tryptic soy agar plates at 37 degC for 18 hrs by broth microdilution assay
# Format: functional
# Settings: not given
row,Structure (SMILES),MBC [µg/mL]
1,C/C(=N\NC(=N)N)c1sc(-c2ccc(C#CC(C)(C)O)cc2)nc1C,64

# Test system: Escherichia coli
# Assay: BActericidal activity against Escherichia coli BW25113 assessed as reduction in bacterial cell growth incubated for 18 to 20 hrs followed by re-plating on tryptic soy agar plates at 37 degC for 18 hrs by broth microdilution assay
# Format: functional
# Settings: not given
row,Structure (SMILES),MBC [µg/mL]
1,C/C(=N\NC(=N)N)c1sc(-c2ccc(C#CC(C)(C)O)cc2)nc1C,> 64

# Test system: Pseudomonas aeruginosa
# Assay: Bactericidal activity against Pseudomonas aeruginosa ATCC 15442 assessed as reduction in bacterial cell growth incubated for 18 to 20 hrs followed by re-plating on tryptic soy agar plates at 37 degC for 18 hrs by broth microdilution assay
# Format: functional
# Settings: not given
row,Structure (SMILES),MBC [µg/mL]
1,C/C(=N\NC(=N)N)c1sc(-c2ccc(C#CC(C)(C)O)cc2)nc1C,> 64

# Test system: J774
# Assay: Cytotoxicity against mouse J774 assessed as reduction in cell viability at 16 ug/ml incubated for 24 hrs by MTS assay
# Format: cell-based
# Settings: j774, 24 h
row,Structure (SMILES),Activity
1,C/C(=N\NC(=N)N)c1sc(-c2ccc(C#CC(C)(C)O)cc2)nc1C,Toxic

# Test system: not listed separately
# Assay: Solubility of compound in PBS after 2 hrs by turbidity based absorbance analysis
# Format: physicochemical
# Settings: not given
row,Structure (SMILES),solubility kinetic at 2 h [µM]
1,C/C(=N\NC(=N)N)c1sc(-c2ccc(C#CC(C)(C)O)cc2)nc1C,320
